In US8722674B2, “1,3,5-triazine-2,4,6-triamine compound or pharmaceutical acceptable salt thereof, and pharmaceutical composition comprising the same” (Hanall Biopharma Co., Ltd., priority 2007, dated 2014):

Tests used:
HepG2 cells [1] = assay: Measurement of cholesterol synthesis ability (Amplex red fluorescence); format: cell-based; settings: Homo sapiens; 100 uM, HepG2 cells, 24 h treatment; lower is better; read-out: cholesterol synthesis ability, % control
Excerpt: (§1) Metformin that is widely used in type 2 diabetic patients inhibits the formation of glucose, the synthesis of cholesterol and triglyceride in liver cells and promote the absorption of glucose from blood vessels in the muscle cells. […] In the case of the ability to form cholesterol, triglyceride and glucose, the lower the numerical value, the better the effect. Numerical values for a control group become reference values.
(§2) As a hepatic cell model, HepG2 cells were used to measure cholesterol synthesis inhibitory ability, which is the important function of AMPK. The hepatic cell model HepG2 cells were cultured in 1% serum-containing media for 24 hours, and then treated with each of the compounds for 24 hours. Then, the cells were disrupted with lysis buffer (0.1 M potassium phosphate, pH 7.4, 0.05 M NaCl, 5 mM cholic acid, 0.1% Triton X-100). To the disrupted cells, the same volume of a reaction solution (2 U/ml cholesterol oxidizing agent, 2 U/ml peroxidase, 0.2 U/ml cholesterol esterase, and 300 μM Amplex red as a fluorescent factor) was added and allowed to react at 37° C. for 30 minutes. After completion of the reaction, the cells were measured with a fluorometer at a wavelength of 560/590 nm (ex/em), thus quantifying the amount of […] formed in the cells. A lower measurement value means an increased lipid production inhibitory ability.

HepG2 cells [2] = assay: Measurement of triglyceride (Amplex red fluorescence); format: cell-based; settings: Homo sapiens, 100 uM, 24 h treatment, lower is better, read-out: triglyceride synthesis ability, % control
Description: as §1
as §2, with “model,” for “model, HepG2 cells were used to measure cholesterol synthesis inhibitory ability, which is the important function of AMPK. The hepatic cell model”, “(0.1M” for “(0.1 M”, “(0.76” for “(2”, “glycerol kinase, […] peroxidase, 22.2 U/ml glycerol” for “cholesterol”, “agent,” for “agent, 2 U/ml peroxidase, 0.2 U/ml cholesterol esterase,”

C2C12 cells = assay: Measurement of glucose absorption (3H-deoxy-glucose); format: cell-based; settings: Mus musculus, differentiated C2C12 muscle cells, with 1 μM insulin 24 h, higher is better, read-out: glucose absorption, % control
Excerpt: as §1
As a muscle cell model, C2C12 cells were induced to differentiate into muscle cells in 2% bovine fetal serum for 6 days. The C2C12 cells which differentiated into muscle cells were treated with each of the compounds in serum-free low glucose media, and then cultured with 1 μM of insulin for 24 hours. After cultivation, the cells were treated with 1 μCi 3H-deoxy-glucose and 10 μM deoxy-glucose at 37° C. for 15 minutes. After treatment, the media were removed, and the cells were washed twice with PBS. The washed cells were treated with 0.1 N NaOH and neutralized with 1N HCl. The amount of glucose absorbed into the cells was measured with a liquid scintillation counter. The effect of the compounds was determined by selecting a compound showing an absorption effect of at least 200%, dividing the absorption effect by the average percent of the control group, and then multiplying the divided value by […]. A higher measurement value means a stronger ability to reduce insulin resistance.

HepG2 cells [3] = assay: Measurement of gluconeogenesis (14C-lactate); format: cell-based; settings: Homo sapiens, 24 h treatment, lower is better, read-out: gluconeogenesis (glucose synthesis ability), % control
Description: as §1
As a hepatic cell model, HepG2 cells were cultured in 10% serum-containing high glucose media, and then treated with each of the compounds for 24 hours. Then, the cells were treated with 0.5 uCi 14C-lactate and 10 mM L-lactate, and cultured for 4 hours. After cultivation, the media of the cells were removed, and the cells were washed with PBS, treated with 0.1N NaOH and left to stand at room temperature for 1 hour. Then, the cells were neutralized with 1N HCl, and the amount of glucose formed in the cells was measured with a liquid scintillation counter. […] A lower measurement value means a stronger blood glucose lowering activity.

Structure (SMILES) | activity at 100 µM (HepG2 cells [1]) | melting point | activity at 100 µM (HepG2 cells [2]) | activity at 100 µM (C2C12 cells) | activity at 100 µM (HepG2 cells [3]) | activity at 200 µM (C2C12 cells) | activity at 200 µM (HepG2 cells [3])
CC(Nc1nc(N)nc(N(C)C)n1)c1cccc2ccccc12 (stereo not drawn) [Example 21, N2,N2-dimethyl-N4-(1-(naphthalen-1-yl)ethyl)-1,3,5-triazine-2,4,6-triamine] | 56.6% | 73 to 76 °C | 71% | 140% | 42.1% |  | 
COc1ccc(CNc2nc(N)nc(N(C)C)n2)cc1O [Example 8, 5-((4-amino-6-(dimethylamino)-1,3,5-triazine-2-ylamino)methyl)-2-methoxyphenol] | 59.1% | 141.4 to 142 °C | 106% |  |  | 126% | 94.8%
CN(C)c1nc(N)nc(Nc2ccc3c(c2)CCC3)n1 [Example 23, N2-(2,3-dihydro-1H-inden-5-yl)-N4,N4-dimethyl-1,3,5-triazine-2,4,6-triamine] | 63% | 245 to 255 °C | 37.2% | 1.91% | 10.7% |  | 
CN(C)c1nc(N)nc(Nc2ccc(Br)cc2)n1 [Example 18, N2-(4-bromophenyl)-N4,N4-dimethyl-1,3,5-triazine-2,4,6-triamine] | 66.4% | 105 to 108 °C | 44.6% | 91.5% | 67% |  | 
CCCc1ccc(Nc2nc(N)nc(N(C)C)n2)cc1 [Example 27, N2,N2-dimethyl-N4-(4-propylphenyl)-1,3,5-triazine-2,4,6-triamine] | 63.5% | 155 to 165 °C | 67.4% | 4.05% | 30.9% |  | 
CN(C)c1nc(N)nc(NCc2ccoc2)n1 [Example 12, N2-(furan-3-ylmethyl)-N4,N4-dimethyl-1,3,5-triazine-2,4,6-triamine] | 92.4% | 151.6 to 152 °C | 87.7% |  |  | 180% | 78.6%
CN(C)c1nc(N)nc(Nc2ccccc2-c2ccccc2)n1 [Example 38, N2-(biphenyl-2-yl)-N4,N4-dimethyl-1,3,5-triazine-2,4,6-triamine] | 55.1% | 196 to 216 °C | 63.3% | 92.1% | 13.8% |  | 
CN(C)c1nc(N)nc(NCCCN2CCCC2=O)n1 [Example 9, 1-(3-(4-amino-6-(dimethylamino)-1,3,5-triazin-2-ylamino)propyl)pyrrolidin-2-one] | 93.5% | 176.5 to 177 °C | 95.2% |  |  | 120% | 110%
CN(C)c1nc(N)nc(Nc2ccc(Cl)cc2)n1 [Example 20, N2-(4-chlorophenyl)-N4,N4-dimethyl-1,3,5-triazine-2,4,6-triamine] | 56.3% | 164 to 167 °C | 41.4% | 132% | 84.9% |  | 
CN(C)c1nc(N)nc(Nc2ccc(F)cc2)n1 [Example 31, N2-(4-fluorophenyl)-N4,N4-dimethyl-1,3,5-triazine-2,4,6-triamine] | 67.2% | 182 to 199 °C | 69.8% | 131% | 80.7% |  | 
CN(C)c1nc(N)nc(Nc2ccccc2O)n1 [Example 43, 2-(4-amino-6-(dimethylamino)-1,3,5-triazine-2-ylamino)phenol] | 41.1% | 307 to 312 °C | 77% | 186% | 83.5% |  | 
CN(C)c1nc(N)nc(NCCN2CCCCC2)n1 [Example 7, N2,N2-dimethyl-N4-(2-(piperidin-1-yl)ethyl)-1,3,5-triazine-2,4,6-triamine] | 97.4% | 116.6 to 117.2 °C | 95.8% |  |  | 131% | 101%
Cc1cccc(Nc2nc(N)nc(N(C)C)n2)c1 [Example 32, N2,N2-dimethyl-N4-m-tolyl-1,3,5-triazine-2,4,6-triamine] | 34.2% | 166 to 168 °C | 66.6% | 118% | 66.8% |  | 
CCCCCCNc1nc(N)nc(N(C)C)n1 [Example 29, N2-hexyl-N4,N4-dimethyl-1,3,5-triazine-2,4,6-triamine] | 63.5% | 142 to 149 °C | 41.2% | 94.5% | 16.3% |  | 
CN(C)c1nc(N)nc(N2CCN(c3ccccc3)CC2)n1 [Example 39, N2,N2-dimethyl-6-(4-phenylpiperazin-1-yl)-1,3,5-triazine-2,4-diamine] | 55.8% | 132 to 139 °C | 95.3% | 115% | 77.4% |  | 
CN(C)c1nc(N)nc(N(C)C)n1 [Example 10, N2,N2,N4,N4-tetramethyl-1,3,5-triazine-2,4,6-triamine] | 98.9% | 227 to 228 °C | 97% |  |  | 102% | 87.2%
Cc1ccc(CNc2nc(N)nc(N(C)C)n2)cc1 [Example 14, N2,N2-dimethyl-N4-(4-methylbenzyl)-1,3,5-triazine-2,4,6-triamine] | 87.8% | 139 to 143 °C | 92% | 113% | 75.4% |  | 
COc1ccc(OC)c(Nc2nc(N)nc(N(C)C)n2)c1 [Example 19, N2-(2,5-dimethoxyphenyl)-N4,N4-dimethyl-1,3,5-triazine-2,4,6-triamine] | 69.2% | 213 to 215 °C | 74.5% | 131% | 116% |  | 
